Data published in PubChem BioAssay (NCI).
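Where inhibition never reached the appropriate level, the endpoint shown equals the highest concentration tested. Otherwise, values were interpolated linearly from a five-concentration, 48-hour dose response in 96-well plates. The concentration for 50% growth inhibition is given as GI50. TGI: total growth inhibition.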

How the values were obtained:
Experiment in all cases: NCI-60 cell line screen, 48 h
RXF 393 renal = test system: RXF 393 renal
CCRF-CEM leukemia = test system: CCRF-CEM leukemia
EKVX NSCLC = test system: EKVX NSCLC
TK-10 renal = test system: TK-10 renal
NCI/ADR-RES ovarian = test system: NCI/ADR-RES ovarian
SK-MEL-2 melanoma = test system: SK-MEL-2 melanoma
SF-268 CNS = test system: SF-268 CNS
NCI-H522 lung = test system: NCI-H522 lung
SK-MEL-28 melanoma = test system: SK-MEL-28 melanoma
A549 NSCLC = test system: A549 NSCLC
SR leukemia = test system: SR leukemia
MDA-MB-231 breast = test system: MDA-MB-231 breast
OVCAR-5 ovarian = test system: OVCAR-5 ovarian
BT-549 breast = test system: BT-549 breast
SK-OV-3 ovarian = test system: SK-OV-3 ovarian
RPMI-8226 leukemia = test system: RPMI-8226 leukemia
MALME-3M melanoma = test system: MALME-3M melanoma
SF-295 CNS = test system: SF-295 CNS
K-562 leukemia = test system: K-562 leukemia
NCI-H23 lung = test system: NCI-H23 lung
MCF7 breast = test system: MCF7 breast
HCT-116 colon = test system: HCT-116 colon
SW-620 colon = test system: SW-620 colon
IGROV1 ovarian = test system: IGROV1 ovarian
HCT-15 colon = test system: HCT-15 colon
UO-31 renal = test system: UO-31 renal
SF-539 CNS = test system: SF-539 CNS
SN12C renal = test system: SN12C renal
DU-145 prostate = test system: DU-145 prostate
SK-MEL-5 melanoma = test system: SK-MEL-5 melanoma
MOLT-4 leukemia = test system: MOLT-4 leukemia
PC-3 prostate = test system: PC-3 prostate
SNB-19 CNS = test system: SNB-19 CNS
NCI-H460 lung = test system: NCI-H460 lung
OVCAR-8 ovarian = test system: OVCAR-8 ovarian
HCC-2998 colon = test system: HCC-2998 colon
OVCAR-4 ovarian = test system: OVCAR-4 ovarian
T-47D breast = test system: T-47D breast
COLO 205 colon = test system: COLO 205 colon
M14 melanoma = test system: M14 melanoma
OVCAR-3 ovarian = test system: OVCAR-3 ovarian
NCI-H226 lung = test system: NCI-H226 lung
HOP-92 NSCLC = test system: HOP-92 NSCLC
HS 578T breast = test system: HS 578T breast
U251 CNS = test system: U251 CNS
ACHN renal = test system: ACHN renal
HOP-62 NSCLC = test system: HOP-62 NSCLC
CAKI-1 renal = test system: CAKI-1 renal
UACC-62 melanoma = test system: UACC-62 melanoma
UACC-257 melanoma = test system: UACC-257 melanoma
LOX IMVI melanoma = test system: LOX IMVI melanoma
SNB-75 CNS = test system: SNB-75 CNS
786-0 renal = test system: 786-0 renal
A498 renal = test system: A498 renal
HL-60(TB) leukemia = test system: HL-60(TB) leukemia
KM12 colon = test system: KM12 colon

Work on `COc1ccc(/C(=C2\O[C@@H]([C@H]3COC(C)(C)O3)[C@H]3OC(C)(C)O[C@@H]23)c2cc(OC)c(OC)c(OC)c2)cc1O` yielded a GI50 (RXF 393 renal) of 2120 nM, a TGI (RXF 393 renal) of 5.89 µM and a GI50 (CCRF-CEM leukemia) of 3.75 µM. The TGI (CCRF-CEM leukemia) was over 100 µM, the GI50 (EKVX NSCLC) was 55.7 µM and the TGI (EKVX NSCLC) was over 100 µM. For the same compound, the GI50 (TK-10 renal) was 23.4 µM, the TGI (TK-10 renal) was 61.4 µM and the GI50 (NCI/ADR-RES ovarian) was 2520 nM. It also gave a TGI (NCI/ADR-RES ovarian) of 6.91 µM, a GI50 (SK-MEL-2 melanoma) of 57.9 µM and a TGI (SK-MEL-2 melanoma) of over 100 µM. The GI50 (SF-268 CNS) was 6.95 µM, the TGI (SF-268 CNS) was 31.4 µM and the GI50 (NCI-H522 lung) was 2730 nM. It also gave a TGI (NCI-H522 lung) of 9.08 µM, a GI50 (SK-MEL-28 melanoma) of 5.45 µM and a TGI (SK-MEL-28 melanoma) of over 100 µM. The GI50 (A549 NSCLC) was 23.2 µM, the TGI (A549 NSCLC) was over 100 µM and the GI50 (SR leukemia) was 6.27 µM. The TGI (SR leukemia) was over 100 µM, the GI50 (MDA-MB-231 breast) was 4.58 µM and the TGI (MDA-MB-231 breast) was 30.7 µM. For the same compound, the GI50 (OVCAR-5 ovarian) was over 100 µM, the TGI (OVCAR-5 ovarian) was over 100 µM and the GI50 (BT-549 breast) was 5.39 µM. The TGI (BT-549 breast) was over 100 µM, the GI50 (SK-OV-3 ovarian) was 4.11 µM and the TGI (SK-OV-3 ovarian) was 18.5 µM. It also gave a GI50 (RPMI-8226 leukemia) of 4.63 µM, a TGI (RPMI-8226 leukemia) of over 100 µM and a GI50 (MALME-3M melanoma) of 5.46 µM. The TGI (MALME-3M melanoma) was over 100 µM, the GI50 (SF-295 CNS) was 7 µM and the TGI (SF-295 CNS) was 37.3 µM. It also gave a GI50 (K-562 leukemia) of 3.22 µM, a TGI (K-562 leukemia) of over 100 µM and a GI50 (NCI-H23 lung) of 7.96 µM. The TGI (NCI-H23 lung) was 46 µM, the GI50 (MCF7 breast) was 3.78 µM and the TGI (MCF7 breast) was over 100 µM. For the same compound, the GI50 (HCT-116 colon) was 4.14 µM, the TGI (HCT-116 colon) was over 100 µM and the GI50 (SW-620 colon) was 4.05 µM. It also gave a TGI (SW-620 colon) of over 100 µM, a GI50 (IGROV1 ovarian) of 33.2 µM and a TGI (IGROV1 ovarian) of over 100 µM. For the same compound, the GI50 (HCT-15 colon) was 4.51 µM, the TGI (HCT-15 colon) was over 100 µM and the GI50 (UO-31 renal) was 7.53 µM. For the same compound, the TGI (UO-31 renal) was 77.8 µM, the GI50 (SF-539 CNS) was 2590 nM and the TGI (SF-539 CNS) was 6.63 µM. For the same compound, the GI50 (SN12C renal) was 5.62 µM, the TGI (SN12C renal) was over 100 µM and the GI50 (DU-145 prostate) was 3.29 µM. The TGI (DU-145 prostate) was 13.3 µM, the GI50 (SK-MEL-5 melanoma) was 2690 nM and the TGI (SK-MEL-5 melanoma) was 11.2 µM. The GI50 (MOLT-4 leukemia) was 6.93 µM, the TGI (MOLT-4 leukemia) was over 100 µM and the GI50 (PC-3 prostate) was 5.11 µM. It also gave a TGI (PC-3 prostate) of over 100 µM, a GI50 (SNB-19 CNS) of 4.28 µM and a TGI (SNB-19 CNS) of over 100 µM. For the same compound, the GI50 (NCI-H460 lung) was 4.31 µM, the TGI (NCI-H460 lung) was over 100 µM and the GI50 (OVCAR-8 ovarian) was 5.27 µM. The TGI (OVCAR-8 ovarian) was over 100 µM, the GI50 (HCC-2998 colon) was 13.2 µM and the TGI (HCC-2998 colon) was over 100 µM. The GI50 (OVCAR-4 ovarian) was 9.18 µM, the TGI (OVCAR-4 ovarian) was over 100 µM and the GI50 (T-47D breast) was 25.1 µM. For the same compound, the TGI (T-47D breast) was over 100 µM, the GI50 (COLO 205 colon) was 17.4 µM and the TGI (COLO 205 colon) was over 100 µM. It also gave a GI50 (M14 melanoma) of 2400 nM, a TGI (M14 melanoma) of 5.9 µM and a GI50 (OVCAR-3 ovarian) of 2380 nM. For the same compound, the TGI (OVCAR-3 ovarian) was 5.34 µM, the GI50 (NCI-H226 lung) was 25.9 µM and the TGI (NCI-H226 lung) was over 100 µM. It also gave a GI50 (HOP-92 NSCLC) of 5.45 µM, a TGI (HOP-92 NSCLC) of 31.8 µM and a GI50 (HS 578T breast) of 2830 nM. It also gave a TGI (HS 578T breast) of 7.88 µM, a GI50 (U251 CNS) of 3.84 µM and a TGI (U251 CNS) of 48.2 µM. For the same compound, the GI50 (ACHN renal) was 9.31 µM, the TGI (ACHN renal) was over 100 µM and the GI50 (HOP-62 NSCLC) was 5.93 µM. The TGI (HOP-62 NSCLC) was 25.5 µM, the GI50 (CAKI-1 renal) was 37.3 µM and the TGI (CAKI-1 renal) was over 100 µM. The GI50 (UACC-62 melanoma) was 57.9 µM, the TGI (UACC-62 melanoma) was over 100 µM and the GI50 (UACC-257 melanoma) was over 100 µM. It also gave a TGI (UACC-257 melanoma) of over 100 µM, a GI50 (LOX IMVI melanoma) of 5.18 µM and a TGI (LOX IMVI melanoma) of over 100 µM. It also gave a GI50 (SNB-75 CNS) of 1800 nM, a TGI (SNB-75 CNS) of 6.31 µM and a GI50 (786-0 renal) of 21.1 µM. For the same compound, the TGI (786-0 renal) was 60.6 µM, the GI50 (A498 renal) was 35.7 µM and the TGI (A498 renal) was over 100 µM. It also gave a GI50 (HL-60(TB) leukemia) of 3.39 µM, a TGI (HL-60(TB) leukemia) of 23.3 µM and a GI50 (KM12 colon) of 3.99 µM. It also gave a TGI (KM12 colon) of over 100 µM.
